# Results published in PMC6010545, “Identification of a Novel Polyamine Scaffold With Potent Efflux Pump Inhibition Activity Toward Multi-Drug Resistant Bacterial Pathogens” (Frontiers in Microbiology, 2018).
# “And” between values parts separate entries of the source, which are not always exact repeats. Identical values can stand only once. “Also recorded” adds a separate entry of the source. Like-named read-outs stand apart in the source and are kept apart here. Residues, ends and D or L forms follow the SMILES beside them. No end group written: not given here. *: point of attachment. βNA = c1ccc2cc(N*)ccc2c1
# Legend:
# [1] = test system: tetracycline-resistant P. aeruginosa isolate 1419; test: Checkerboard potentiation assay with tetracycline; format: cell-based, Pseudomonas aeruginosa; settings: for EC50 / EC90: Pseudomonas aeruginosa
# Description: (§1) Scaffold ranking library samples and individual polyamines were screened using checkerboard inhibitory assays to assess the potentiation of tetracycline and chloramphenicol. The test utilized a 96-well plate microtiter assay where the concentration of the scaffold or individual polyamine was decreased from 25 to 0.8 μg mL^-1 (average molarity of mixture samples 65 to 4 μM) along the rows, and the concentration of tetracycline or chloramphenicol was increased from 0.4 to 100 μM across the columns. […] However, with the known antibiotics, we report EC90 values in μM, which more accurately describes purified compounds. Plates were incubated statically at 37°C for 20 h, and the optical density (OD600) was determined using a Synergy 2 plate reader (BioTek). Potentiation modeling (detailed below) was performed to determine fold change in the 50 and 90% effective concentration of tetracycline or chloramphenicol.
# Potentiation was quantified using a mathematical model developed by our group to assess the ability of library samples and individual compounds to effectively enhance the activity of tetracycline or chloramphenicol ([Hoel, 1987]). […] In this way, only libraries and compounds that potentiated tetracycline or chloramphenicol activity were pursued. The model is based on the following equation for modeling the percentage activity of a mixture of two agents with independent action ([Hoel, 1987]):
# %Antibiotic & Comp(X1,X2)=%Antibiotic(X1)+%Comp(X2)−%Antibiotic(X1)⋅%Comp(X2)
# Here, x1 and x2 are the concentrations of antibiotic (tetracycline or chloramphenicol) and library/compound (Comp) tested, respectively. This equation can be rearranged to model the effective percent activity (EC) of the antibiotic alone, after accounting for compound activity:
# Eff%Antibiotic(X1)=%Antibiotic & Compound(X1,X2)−%Compound(X2)/1−%Compound(X2)
# Thus, the model-adjusted checkerboards show the antibiotic activity post-potentiation, and from that one can determine the true change in Mic.
# MTT cytotoxicity assay = format: cell-based; settings: human, 25 μg mL^-1, 48 h, read-out: percent recovery (cell viability)
# Description: To assess toxicity of polyamine compounds we used HepG2 human liver carcinoma cells and Hek293T human embryonic kidney epithelial cells. The viability of cell lines was determined using a 3-(4,5-dimethylthiazol-2-yl)-2,5-diphenyltetrazolium bromide (MTT) molecular probe as previously described by our group ([Fleeman et al., 2015]). Briefly, 247, 266, 271 (Hek293T), or 250, 271, 314 (HepG2), alongside control efflux pump inhibitor PaβN, were diluted in 10% DMF from 25 μg mL^-1 to 3 μg mL^-1 using twofold dilutions, before being added to cells in DMEM with 10% FBS and 1% penicillin/streptomycin. Cells were then incubated for 48 h at 37°C with 5% CO2. Following this, viability was assessed by the addition of MTT and measuring the OD570 in a Biotek plate reader. Percent recovery was determined compared to no drug controls.
# P. aeruginosa = test: Minimum inhibitory concentrations of antibiotics, P. aeruginosa isolates; format: cell-based; settings: Pseudomonas aeruginosa, read-out: minimal inhibitory concentration
# Description: (§2) The bacterial strains used in this study are multi-drug resistant clinical isolates that have previously been described (Supplementary Table S1; [Fleeman et al., 2015]). Organisms were grown in tryptic soy broth (TSB) for overnight cultures and cation adjusted Mueller Hinton broth (CA-MH II) was used for experimental procedures. All incubations were performed at 37°C. The minimum inhibitory concentrations (MICS) for all antibiotics tested against these organisms are shown in Supplementary Table S1.
# P. aeruginosa (1419) [2] = test: Bacterial membrane depolarization (DiSC3 dye); format: cell-based; settings: 25 μg mL^-1
# Description: To determine the level of membrane depolarization by polyamine compounds a 3,3′-dipropylthiadicarbocyanine Iodide (DiSC3) fluorescence dye was used. Exponentially growing cultures were prepared as described above, before being harvested by centrifugation. Cells were next washed in buffer a [5 mM Hepes (pH 7.2), 5 mM glucose] and resuspended to an OD600 of 0.2 in the same buffer containing 100 mM KCL and 2 μM DiSC3. Samples were allowed to equilibrate for 15 min at room temperature to ensure uptake and quenching of the dye in bacterial membranes. Cells were aliquoted into 96-well plates and polyamines were added alongside the known efflux inhibitor PAβN (all at 25 μg mL^-1). Nisin (25 μg mL^-1) was used as a positive control to display depolarization effects. A Biotek plate reader was used to monitor fluorescence of wells, with a 622 nm excitation and 670 nm emission. For graphical representation, the maximum relative fluorescence at 2 min was used for comparison of lead agents to controls.
# S. aureus = test: microbe, parasite or virus in culture; format: cell-based; settings: Staphylococcus aureus
# Description: as §2
# A. baumannii 1643 = test: Minimum inhibitory concentrations of antibiotics, A. baumannii isolate; format: cell-based; settings: Acinetobacter baumannii; strain 1643; read-out: minimal inhibitory concentration
# Description: as §2
# P. aeruginosa (1419) [3] = test: Bactericidal assessment in combination with tetracycline; settings: Pseudomonas aeruginosa, read-out: percent recovery (bacterial viability)
# Description: Lead agents were screened for bactericidal activity as described by us previously ([Van Horn et al., 2014]; [Fleeman et al., 2015]), with the following modifications. Varying concentrations of tetracycline (0, 12, 25, and 50 μM) were used in combination with the MPC (25 μM) of lead agents 247, 250, 266, 271, and 314 against P. aeruginosa. […] Biofilm experiments were performed similar to those described by us previously ([Fleeman et al., 2015]; [von Salm et al., 2016]), with the following modifications. Polyamine agents 247, 250, 266, 271, and 314 were added at MPC into biofilm containing wells alongside varying concentrations of tetracycline (0, 12, 25, and 50 μM). Cellular viability was determined by serial dilution after a 20-h incubation at 37°C. Values were converted to percent recovery using no treatment controls. All data was generated from three biological replicates and two technical replicates.
# MRSA (USA300) = test: Potentiation of chloramphenicol, MRSA USA300 and norA mutant; format: cell-based, S. aureus
# Description: as §1
# Potentiation was quantified using a mathematical model developed by our group to assess the ability of library samples and individual compounds to effectively enhance the activity of tetracycline or chloramphenicol ([Hoel, 1987]). […] In this way, only libraries and compounds that potentiated tetracycline or chloramphenicol activity were pursued. […]
# [4] = test system: P. aeruginosa proficient (1419) and deficient (1418) strain; test: Aztreonam combination testing in efflux proficient and deficient strains; format: cell-based; settings: strain 1419 (efflux proficient); polyamine 12.5 μg mL^-1, ½ X MIC aztreonam
# Description: FIGURE 6 Confirming efflux pump inhibition by polyamines using efflux deficient strains. (A) A P. aeruginosa proficient (1419) and deficient (1418) strain were subjected to combination testing of the polyamines at 12.5 μg mL^-1 and ½ X MIC of aztreonam. Fold potentiation was calculated by dividing the CFU mL^-1 for aztreonam only by the CFU mL^-1 of the combined treatment groups. (B) Lead polyamine 247 was assessed for its ability to potentiate the activity of chloramphenicol toward S. aureus strain United States 300 and its norA mutant. Shown is the potentiated chloramphenicol EC90 calculated as described in A. Error bars are shown ± SEM.
# [5] = 25 µg ml-1 TPI, EC50 tetracycline no TPI / with TPI
# [6] = 25 µg ml-1 TPI, EC90 tetracycline no TPI / with TPI
# [7] = EC50 tetracycline without EPI / with EPI
# [8] = EC90 tetracycline without EPI / with EPI
# [9] = 20 h, inhibitor alone, 25 μg mL^-1 highest concentration tested, * = EC50, read-out: EPI* (inhibitory concentration of efflux pump inhibitor alone)
# [10] = HepG2 human liver carcinoma cells
# [11] = Hek293T human embryonic kidney epithelial cells, vs solvent only controls
molecule,measurement,setting,value
NCCC[C@@H](CN[C@H](CN)Cc1ccccc1)NCCc1ccccc1 [compound 314],FP* (fold potentiation of tetracycline EC50),[1]; [5],5 fold
same,FP# (fold potentiation of tetracycline EC90),[1]; [6],7.5 fold
same,FP* (fold potentiation of tetracycline EC50),[1]; [7],5 fold and 5.0 fold
same,FP# (fold potentiation of tetracycline EC90),[1]; [8],7.5 fold
same,EC50,[1]; [9],> 25 µg/mL
same,TPI (inhibitory concentration of polyamine alone),[1]; 25 µg ml-1 highest tested,> 25 µg/mL
same,"recovery at 48 h, 25 μg mL^-1",MTT cytotoxicity assay; [10],77%
C[C@H]1[C@H](NC(=O)/C(=N\OC(C)(C)C(=O)O)c2csc(N)n2)C(=O)N1S(=O)(=O)O [aztreonam],MIC,P. aeruginosa; strain 1418,6 µM
same,MIC,P. aeruginosa; strain 1419,1 µM
O=C(N[C@H](CO)[C@H](O)c1ccc([N+](=O)[O-])cc1)C(Cl)Cl [chloramphenicol],membrane depolarization (DiSC3 fluorescence change),P. aeruginosa (1419) [2],decreased in florescence
same,MIC,"S. aureus; USA100, strain 635 (USA100), read-out: minimal inhibitory concentration",110 µM
same,MIC,"S. aureus; USA300, read-out: minimal inhibitory concentration, strain JE-2 norA knockout (USA300)",100 µM
same,MIC,"S. aureus; USA300, strain JE-2 parental (USA300), read-out: minimal inhibitory concentration",110 µM
same,MIC,A. baumannii 1643,85 µM
same,MIC,P. aeruginosa; strain 1418,> 619 µM
same,MIC,P. aeruginosa; strain 1419,150 µM
"COC(=O)[C@H]1[C@H]2C[C@@H]3c4[nH]c5cc(OC)ccc5c4CCN3C[C@H]2C[C@@H](OC(=O)c2cc(OC)c(OC)c(OC)c2)[C@@H]1OC [Reserpine, reserpine, reference compound]",FP* (fold potentiation of tetracycline EC50),[1]; [7],11.2 fold
same,FP# (fold potentiation of tetracycline EC90),[1]; [8],1 fold
same,EC50,[1]; [9],> 25 µg/mL
"N=C(N)NCCC[C@H](NC(=O)[C@@H](N)Cc1ccccc1)C(=O)Nc1ccc2ccccc2c1 [PAβN, phenylalanine arginine beta naphthalimide, reference compound] (H-Phe-Arg-βNA)","recovery at 48 h, 25 μg mL^-1",MTT cytotoxicity assay; [11],63%
same,"recovery at 48 h, 25 μg mL^-1",MTT cytotoxicity assay; [10],68%
CN(C)[C@@H]1C(O)=C(C(N)=O)C(=O)[C@@]2(O)C(O)=C3C(=O)c4c(O)cccc4[C@@](C)(O)[C@H]3C[C@@H]12 [tetracycline],viability at 12 µM,P. aeruginosa (1419) [3],53%
same,viability at 25 µM,P. aeruginosa (1419) [3],35%
same,viability at 50 µM,P. aeruginosa (1419) [3],1%
same,EC50,"[1]; no polyamine, average across replicates, read-out: tetracycline alone EC50",47.8 µM
same,EC90,"[1]; no library or polyamine, average across replicates, read-out: tetracycline alone EC90",82.5 µM
same,MIC,P. aeruginosa; strain 1418,200 µM
same,MIC,P. aeruginosa; strain 1419,100 µM
CNCCCC[C@@H](CN)NC[C@H](Cc1ccccc1)NCCc1ccccc1 [compound 247],potentiation of chloramphenicol,MRSA (USA300); norA knockout,little potentiation
same,potentiation of chloramphenicol,MRSA (USA300); wild-type USA300,marked potentiation of antibiotic activity in a dose responsive manner; also recorded: strongly potentiate chloramphenicol activity
same,FP* (fold potentiation of tetracycline EC50),[1]; [5],5 fold
same,FP# (fold potentiation of tetracycline EC90),[1]; [6],7.5 fold
same,EC50,[1]; [9],> 25 µg/mL
same,TPI (inhibitory concentration of polyamine alone),[1]; 25 µg ml-1 highest tested,> 25 µg/mL
same,"recovery at 48 h, 25 μg mL^-1",MTT cytotoxicity assay; [11],84%
C[C@H]1COc2c(N3CCN(C)CC3)c(F)cc3c(=O)c(C(=O)O)cn1c23 [levofloxacin],MIC,A. baumannii 1643,100 µM
NCC[C@@H](CN)NC[C@H](Cc1ccccc1)NCCc1ccccc1 [compound 250],potentiation of aztreonam,[4],best potentiators of aztreonam
same,FP* (fold potentiation of tetracycline EC50),[1]; [5],7 fold
same,FP# (fold potentiation of tetracycline EC90),[1]; [6],7.8 fold
same,FP* (fold potentiation of tetracycline EC50),[1]; [7],7.0 fold
same,FP# (fold potentiation of tetracycline EC90),[1]; [8],7.8 fold
same,EC50,[1]; [9],> 25 µg/mL
same,TPI (inhibitory concentration of polyamine alone),[1]; 25 µg ml-1 highest tested,> 25 µg/mL
same,"recovery at 48 h, 25 μg mL^-1",MTT cytotoxicity assay; [10],80%
"NC(N)=NCCC[C@H](NC(=O)[C@@H](N)Cc1ccccc1)C(=O)Nc1ccc2ccccc2c1 [PAβN, phenylalanine arginine beta naphthalimide, reference compound] (H-Phe-Arg-βNA)",viability at 25 µg/mL,P. aeruginosa (1419) [3],76%
same,membrane depolarization (DiSC3 fluorescence change),P. aeruginosa (1419) [2],strong increase in fluorescence
same,FP* (fold potentiation of tetracycline EC50),[1]; [7],65.5 fold
same,FP (fold potentiation of tetracycline EC90),[1]; EC90 tetracycline no TPL / with TPL at 25 µg ml-1,8.01 fold
same,FP# (fold potentiation of tetracycline EC90),[1]; [8],8 fold
same,EC50,[1]; [9],> 25 µg/mL
same,EC90,"[1]; Torrey Pines Library alone, 25 µg ml-1 highest tested, read-out: TPL (inhibitory concentration of library alone, EC90)",> 25 µg/mL
"nisin (ITSISLCTPGCKTGALMGCNMKTATCHCSIHVSK; cysteine pairing not given here; also: lantibiotic nisin-A; UniProt P13068 24-57, looked up) [positive control for membrane depolarization]",membrane depolarization (DiSC3 fluorescence change),P. aeruginosa (1419) [2],strong increase in fluorescence
